In patent US10988465B2, “CXCR4 inhibitors and uses thereof” (X4 Pharmaceuticals, Inc., priority 2016, dated 2021):

How the values were obtained:
[1] = target: T1, CXCR-4 transfected U87 cell line (U87.CXCR4) (Homo sapiens, UniProt P61073); test: Intracellular CXCL-12-induced calcium mobilization assay (FLIPR); assay type: cell-based; conditions: U87.CXCR4 cells; CXCL-12 25-50 ng/mL; compound added 15 min before; read-out: IC50 CXCL-12 Ca^2+ flux U87.CXCR4+
T1 construct: expressed in transfected cells; host or cells: U87 (U87.CXCR4)
Outline: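 CXCL-12 (25-50 ng/mL) was the stimulus, and the intracellular calcium rise was tracked kinetically by FLIPR at 37 °C. Cells were U87.CXCR4 transfectants pre-loaded 45 min at 37 °C with 4 μM (final) Fluo-2 AM in HEPES-buffered HBSS with 0.2% BSA, pH 7.4.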

[2] = in vitro; conditions: human, Caco-2, pH 7.4
Outline: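 Bidirectional permeability across Caco-2 monolayers in HBSS (pH 7.4) at a test concentration of 10 μM, incubated 0 and 90 min at 37° C (n=2). Monolayer integrity was assessed by TEER and Lucifer yellow. Papp was derived from LC-MS/MS-measured concentrations.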

[3] = target: T2, Jurkat cells expressing CXCR4 (Homo sapiens, UniProt P61073); test: Chemokine (CXCL12-AF647) binding inhibition assay; conditions: CXCL12-AF647 25 ng/mL, read-out: IC50 CXCL-12 binding Jurkat
T2 construct: endogenous in cells; host or cells: Jurkat
Outline: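 Cells in HBSS, 20 mM HEPES, 0.2% BSA, pH 7.4, preincubated 15 min at room temperature with compound, then 25 ng/mL CXCL12-AF647 for 30 min. After washing and paraformaldehyde fixation, bound ligand read by flow cytometry; percent inhibition calculated from MFI relative to unlabeled and ligand-only controls.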

T2 sequence (P61073 whole entry): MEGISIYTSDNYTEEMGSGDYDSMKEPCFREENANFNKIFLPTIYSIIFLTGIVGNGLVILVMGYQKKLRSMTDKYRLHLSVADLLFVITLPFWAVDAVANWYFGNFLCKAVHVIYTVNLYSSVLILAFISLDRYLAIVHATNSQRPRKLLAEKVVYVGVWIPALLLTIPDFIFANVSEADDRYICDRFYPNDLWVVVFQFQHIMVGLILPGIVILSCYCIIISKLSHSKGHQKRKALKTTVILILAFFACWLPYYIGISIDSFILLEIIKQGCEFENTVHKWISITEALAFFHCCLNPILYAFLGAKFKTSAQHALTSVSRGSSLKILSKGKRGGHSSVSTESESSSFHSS
T1 sequence (P61073 whole entry): as above

SMILES	IC50 [1]	Papp A→B at 90 min, 10 μM [2]	Papp B→A at 90 min, 10 μM [2]	efflux ratio at 90 min, 10 μM [2]	IC50 [3]
CCN1CCC(Oc2cccc3nc([C@H]4CCC[C@@H](c5ncccc5C)N4C)[nH]c23)CC1 [I-43]	0.01 to 100 nM	0.1 to 10 ×10⁻⁶ cm/s	10 to 30 ×10⁻⁶ cm/s	0.1 to 10	0.01 to 100 nM
Cc1cccnc1[C@@H]1CCC[C@H](c2nc3ccccc3[nH]2)N1CCc1cn2ccccc2n1 [I-164]	0.01 to 100 nM	0.1 to 10 ×10⁻⁶ cm/s	10 to 30 ×10⁻⁶ cm/s	0.1 to 10	0.01 to 100 nM
Cc1cccnc1[C@@H]1CCC[C@H](c2nc3cccc(N4CCN(C)CC4)c3n2C)N1C [I-35]	0.01 to 100 nM	0.1 to 10 ×10⁻⁶ cm/s	0.1 to 10 ×10⁻⁶ cm/s	0.1 to 10	0.01 to 100 nM
Cc1cccnc1[C@@H]1CCC[C@H](c2nc3cccc(N4CC5CCC(C4)N5)c3[nH]2)N1C [I-98]	0.01 to 100 nM	0.1 to 10 ×10⁻⁶ cm/s	10 to 30 ×10⁻⁶ cm/s	> 30	0.01 to 100 nM
Cc1cccnc1[C@@H]1CCC[C@H](c2nc3ccccc3n2CCCN(C)C)N1C [I-5, N,N-dimethyl-3-(2-((2R,6S)-1-methyl-6-(3-methylpyridin-2-yl)piperidin-2-yl)-1H-benzo[d]imidazol-1-yl)propan-1-amine]	0.01 to 100 nM	0.1 to 10 ×10⁻⁶ cm/s	0.1 to 10 ×10⁻⁶ cm/s	0.1 to 10	0.01 to 100 nM
Cc1cccnc1[C@@H]1CCC[C@H](c2nc3cccc(N4CCN(C)CC4=O)c3[nH]2)N1C [I-73]	100 to 1000 nM	0.1 to 10 ×10⁻⁶ cm/s	10 to 30 ×10⁻⁶ cm/s	> 30	0.01 to 100 nM
CNCCCCn1c([C@H]2CCC[C@@H](c3ncccc3C)N2C)nc2ccccc21 [I-37]	≥ 1000 nM	0.1 to 10 ×10⁻⁶ cm/s	10 to 30 ×10⁻⁶ cm/s	10 to 30	0.01 to 100 nM
CCN1CCC(Cn2c([C@H]3CCC[C@@H](c4ncccc4C)N3C)nc3ccccc32)CC1 [I-22, 1-((1-ethylpiperidin-4-yl)methyl)-2-((2R,6S)-1-methyl-6-(3-methylpyridin-2-yl)piperidin-2-yl)-1H-benzo[d]imidazole]	0.01 to 100 nM	0.1 to 10 ×10⁻⁶ cm/s	10 to 30 ×10⁻⁶ cm/s	0.1 to 10	0.01 to 100 nM
Cc1cccnc1[C@@H]1CCC[C@H](c2nc3ccccc3n2CCn2cccn2)N1C [I-7, 1-(2-(1H-pyrazol-1-yl)ethyl)-2-((2R,6S)-1-methyl-6-(3-methylpyridin-2-yl)piperidin-2-yl)-1H-benzo[d]imidazole]	≥ 1000 nM	10 to 30 ×10⁻⁶ cm/s	10 to 30 ×10⁻⁶ cm/s	0.1 to 10	0.01 to 100 nM
Cc1cccnc1[C@@H]1CCC[C@H](c2nccn2C2CCN(C)CC2)N1C [I-168]	0.01 to 100 nM	0.1 to 10 ×10⁻⁶ cm/s	10 to 30 ×10⁻⁶ cm/s	0.1 to 10	0.01 to 100 nM
Cc1cccnc1[C@@H]1CCC[C@H](c2nc3ccccc3n2CCCN(C)C)N1 [I-155]	≥ 1000 nM	0.1 to 10 ×10⁻⁶ cm/s	> 30 ×10⁻⁶ cm/s	0.1 to 10	0.01 to 100 nM
CO[C@@H]1C[C@H](c2nc3cccc(N4CCN(C)CC4)c3[nH]2)N(C)[C@H](c2ncccc2C)C1 [I-102]	100 to 1000 nM	0.1 to 10 ×10⁻⁶ cm/s	10 to 30 ×10⁻⁶ cm/s	0.1 to 10	0.01 to 100 nM
Cc1cccnc1[C@@H]1CCC[C@H](c2nc3cccc(N4CCC(N(C)C)CC4)c3[nH]2)N1C [I-67]	0.01 to 100 nM	0.1 to 10 ×10⁻⁶ cm/s	10 to 30 ×10⁻⁶ cm/s	0.1 to 10	0.01 to 100 nM
Cc1cccnc1[C@@H]1CCC[C@H](c2nc3ccccc3n2CCCN)N1C [I-2, 3-(2-((2R,6S)-1-methyl-6-(3-methylpyridin-2-yl)piperidin-2-yl)-1H-benzo[d]imidazol-1-yl)propan-1-amine]	0.01 to 100 nM	0.1 to 10 ×10⁻⁶ cm/s	10 to 30 ×10⁻⁶ cm/s	> 30	0.01 to 100 nM
Cc1cccnc1[C@@H]1CCC[C@H](c2nccn2C2CCNCC2)N1C [I-179]	100 to 1000 nM	0.1 to 10 ×10⁻⁶ cm/s	10 to 30 ×10⁻⁶ cm/s	10 to 30	0.01 to 100 nM
Cc1cccnc1[C@@H]1CCC[C@H](c2nc3cccc(OC4CCN(C)CC4)c3[nH]2)N1C [I-42]	0.01 to 100 nM	0.1 to 10 ×10⁻⁶ cm/s	10 to 30 ×10⁻⁶ cm/s	0.1 to 10	0.01 to 100 nM
Cc1cccnc1[C@@H]1CCC[C@H](c2nc3ccccc3n2CC2CCN(C)CC2)N1CC(F)(F)F [I-26]	≥ 1000 nM	10 to 30 ×10⁻⁶ cm/s	10 to 30 ×10⁻⁶ cm/s	0.1 to 10	≥ 1000 nM

Next, values leading:

IC50 [1]	Papp A→B at 90 min, 10 μM [2]	Papp B→A at 90 min, 10 μM [2]	efflux ratio at 90 min, 10 μM [2]	IC50 [3]	SMILES
100 to 1000 nM	0.1 to 10 ×10⁻⁶ cm/s	10 to 30 ×10⁻⁶ cm/s	10 to 30	0.01 to 100 nM	Cc1cccnc1[C@@H]1CCC[C@H](c2nccn2CC2CCN(C)CC2)N1 [I-175]
0.01 to 100 nM	0.1 to 10 ×10⁻⁶ cm/s	10 to 30 ×10⁻⁶ cm/s	0.1 to 10	0.01 to 100 nM	Cc1cc(F)cnc1[C@@H]1CCC[C@H](c2nc3cccc(N4CCN(C)CC4)c3[nH]2)N1 [I-142]
0.01 to 100 nM	0.1 to 10 ×10⁻⁶ cm/s	10 to 30 ×10⁻⁶ cm/s	0.1 to 10	0.01 to 100 nM	Cc1cccnc1[C@@H]1CCC[C@H](c2nc3ccccc3n2CC2CCCN(C)C2)N1C (stereo partly drawn) [I-13, 2-((2R,6S)-1-methyl-6-(3-methylpyridin-2-yl)piperidin-2-yl)-1-((1-methylpiperidin-3-yl)methyl)-1H-benzo[d]imidazole]
0.01 to 100 nM	10 to 30 ×10⁻⁶ cm/s	10 to 30 ×10⁻⁶ cm/s	0.1 to 10	0.01 to 100 nM	CCN1CCN(c2cccc3nc([C@H]4CCC[C@@H](c5ncccc5C)N4C)[nH]c23)CC1 [I-74]
0.01 to 100 nM	0.1 to 10 ×10⁻⁶ cm/s	0.1 to 10 ×10⁻⁶ cm/s	0.1 to 10	0.01 to 100 nM	Cc1cccnc1[C@@H]1CCC[C@H](c2nc3ccccc3n2CCCN2CCN(C)CC2)N1C [I-17, 2-((2R,6S)-1-methyl-6-(3-methylpyridin-2-yl)piperidin-2-yl)-1-(3-(4-methylpiperazin-1-yl)propyl)-1H-benzo[d]imidazole]
0.01 to 100 nM	0.1 to 10 ×10⁻⁶ cm/s	0.1 to 10 ×10⁻⁶ cm/s	0.1 to 10	0.01 to 100 nM	CN1CCN(c2cccc3nc([C@H]4CCC[C@@H](c5nccc6ccccc56)N4C)[nH]c23)CC1 [I-88]
0.01 to 100 nM	0.1 to 10 ×10⁻⁶ cm/s	10 to 30 ×10⁻⁶ cm/s	0.1 to 10	0.01 to 100 nM	Cc1cccnc1[C@@H]1CCC[C@H](c2nc3cccc(N4C[C@@H](C)N[C@@H](C)C4)c3[nH]2)N1C [I-51]
100 to 1000 nM	0.1 to 10 ×10⁻⁶ cm/s	0.1 to 10 ×10⁻⁶ cm/s	10 to 30	0.01 to 100 nM	Cc1cccnc1[C@@H]1CCC[C@H](c2nc3ccccc3[nH]2)N1CCCCN [I-1, 4-((2R,6S)-2-(1H-benzo[d]imidazol-2-yl)-6-(3-methylpyridin-2-yl)piperidin-1-yl)butan-1-amine]
≥ 1000 nM	10 to 30 ×10⁻⁶ cm/s	10 to 30 ×10⁻⁶ cm/s	0.1 to 10	≥ 1000 nM	Cc1cccnc1[C@@H]1CCC[C@H](c2nc3c(N4CCN(C)CC4)cccc3n2C)N1 [I-141]
0.01 to 100 nM	10 to 30 ×10⁻⁶ cm/s	0.1 to 10 ×10⁻⁶ cm/s	0.1 to 10	100 to 1000 nM	CN1CCN(c2cccc3nc([C@H]4CCC[C@@H](c5ncccc5OC(F)(F)F)N4C)[nH]c23)CC1 [I-63]
≥ 1000 nM	10 to 30 ×10⁻⁶ cm/s	10 to 30 ×10⁻⁶ cm/s	0.1 to 10	100 to 1000 nM	CN1CCN(c2cccc3nc([C@H]4CCC[C@@H](c5ncccc5OC5CC5)N4C)[nH]c23)CC1 [I-72]
0.01 to 100 nM	0.1 to 10 ×10⁻⁶ cm/s	0.1 to 10 ×10⁻⁶ cm/s		0.01 to 100 nM	Cc1cccnc1[C@H]1CCC[C@@H](c2nc3cccc(N4CCN(C)CC4)c3[nH]2)N1C (single isomer, unassigned) [I-3b]
